Consider 2 compounds from patent US20250065017A1, “Fractionating Extracellular Matrix to Modulate Bioactivity and the Host Response” (University of Pittsburgh - Of the Commonwealth System of …, priority 2014, published 2025).

One test deals with THP1 macrophages. Kind of test: PGE2 and PGF2α secretion (ELISA). In kind it is cell-based, human. The settings on record: coadministered along with UBM hydrogel. The procedure: (§1) THP-1 human monocytes were obtained from the American Tissue Culture Collection (ATCC, Manassas, VA) and maintained in RPMI, 10% FBS, 1% penicillin/streptomycin, 2 mM L-glutamine, and 1 mM sodium pyruvate in a humidified atmosphere at 37° C. with 5% CO2. For TNFα, PGE2, PGF2α, IL-1β, and IL-1RA experiments, 500,000 THP-1 cells/well were plated with 320 nM phorbol 12-myristate 13-acetate (PMA) for 24 hours to induce differentiation into macrophages. Adherent macrophages were washed in PBS and placed in fresh media, followed by a 24 hour incubation in fresh media to acquiesce. Human PSCs were isolated from blood vessels in fetal muscle according to the methods outlined by Crisan et al. [Purification and long-term culture of multipotent progenitor cells affiliated with the walls of human blood vessels: myoendothelial cells and pericytes. […]
(§2) Macrophages prepared as described in the Cell Culture section were treated with UBM digest (290 μg/mL) or fractionated components (80 μg/mL soluble, 170 μg/mL structural) for 48 (TNFα, IL-1β and IL-1RA), or 72 (PGE2 and PGF2α) hours. […] Commercially available ELISA kits were used to determine the absolute quantities of TNFα (BD Bioscience, San Jose, CA), PGE2 (Enzo, Farmingdale, NY), PGF2α (Enzo, Farmingdale, NY), IL-1β (BD Bioscience, San Jose, CA), and IL1-RA (R&D Systems, Minneapolis, MN) according to the manufacturer's instructions. […]
A general note: ELISA stands for enzyme-linked immunosorbent assay.

A further test has as its system THP-1 macrophages. Kind of test: TNFα and IL-1β secretion after treatment (ELISA). The class given is cell-based, human. The settings on record: 48 hours treatment. The procedure:
as §1, §2

With `CS(=O)(=O)Nc1ccc([N+](=O)[O-])cc1OC1CCCCC1` [NS-398], in the test on THP1 macrophages, the “PGE2 secretion on co-incubation with COX2 inhibitor” value was “abrogated PGE2 secretion down to control levels”. lipopolysaccharide [LPS]: in the test with THP-1 macrophages, the “production of TNFα and IL-1β above control” value was 100-1000 fold.
